From the NIST ThermoML archive (doi:10.1021/je400122k)
Numbers after ± are expanded uncertainties.

Conditions: Liquid; for speed of sound: Pulse-echo method; for mass density: Vibrating tube method

CCCCCCCCCCCCCC(=O)OC [methyl tetradecanoate]
speed of sound (303.15 K, 100 kPa): 1335.8 ± 5.5 m/s
mass density (303.15 K, 101.3 kPa): 859.7 ± 1 kg/m3
speed of sound (303.15 K, 10000 kPa): 1382.9 ± 5.7 m/s
mass density (303.15 K, 10000 kPa): 866.3 ± 1 kg/m3
speed of sound (303.15 K, 20000 kPa): 1426.9 ± 5.9 m/s
mass density (303.15 K, 20000 kPa): 872.4 ± 1.1 kg/m3
speed of sound (303.15 K, 30000 kPa): 1468.1 ± 6 m/s
mass density (303.15 K, 30000 kPa): 878.2 ± 1.1 kg/m3
speed of sound (303.15 K, 40000 kPa): 1507.6 ± 6.2 m/s
mass density (303.15 K, 40000 kPa): 883.7 ± 1.1 kg/m3
speed of sound (303.15 K, 50000 kPa): 1544.9 ± 6.3 m/s
mass density (303.15 K, 50000 kPa): 888.9 ± 1.1 kg/m3
speed of sound (303.15 K, 60000 kPa): 1580.2 ± 6.5 m/s
mass density (303.15 K, 60000 kPa): 893.8 ± 1.1 kg/m3
speed of sound (303.15 K, 70000 kPa): 1614.2 ± 6.6 m/s
mass density (303.15 K, 70000 kPa): 898.5 ± 1.1 kg/m3
mass density (313.15 K, 101.3 kPa): 851.6 ± 1 kg/m3
mass density (313.15 K, 10000 kPa): 858.2 ± 1 kg/m3
mass density (313.15 K, 20000 kPa): 864.7 ± 1.1 kg/m3
mass density (313.15 K, 30000 kPa): 870.7 ± 1.1 kg/m3
mass density (313.15 K, 40000 kPa): 876.4 ± 1.1 kg/m3
mass density (313.15 K, 50000 kPa): 881.7 ± 1.1 kg/m3
mass density (313.15 K, 60000 kPa): 886.8 ± 1.1 kg/m3
mass density (313.15 K, 70000 kPa): 891.7 ± 1.1 kg/m3
mass density (313.15 K, 80000 kPa): 896.3 ± 1.1 kg/m3
speed of sound (323.15 K, 100 kPa): 1264 ± 5.2 m/s
mass density (323.15 K, 101.3 kPa): 843.3 ± 1 kg/m3
speed of sound (323.15 K, 10000 kPa): 1316.4 ± 5.4 m/s
mass density (323.15 K, 10000 kPa): 850.5 ± 1 kg/m3
speed of sound (323.15 K, 20000 kPa): 1364.8 ± 5.6 m/s
mass density (323.15 K, 20000 kPa): 857.2 ± 1.1 kg/m3
speed of sound (323.15 K, 30000 kPa): 1409.6 ± 5.8 m/s
mass density (323.15 K, 30000 kPa): 863.5 ± 1.1 kg/m3
speed of sound (323.15 K, 40000 kPa): 1451.9 ± 6 m/s
mass density (323.15 K, 40000 kPa): 869.4 ± 1.1 kg/m3
speed of sound (323.15 K, 50000 kPa): 1492.5 ± 6.1 m/s
mass density (323.15 K, 50000 kPa): 874.9 ± 1.1 kg/m3
speed of sound (323.15 K, 60000 kPa): 1530.5 ± 6.3 m/s
mass density (323.15 K, 60000 kPa): 880.2 ± 1.1 kg/m3
speed of sound (323.15 K, 70000 kPa): 1566.8 ± 6.4 m/s
mass density (323.15 K, 70000 kPa): 885.2 ± 1.1 kg/m3
speed of sound (323.15 K, 80000 kPa): 1601.2 ± 6.5 m/s
mass density (323.15 K, 80000 kPa): 889.9 ± 1.1 kg/m3
mass density (333.15 K, 101.3 kPa): 835.2 ± 1 kg/m3
mass density (333.15 K, 10000 kPa): 843 ± 1 kg/m3
mass density (333.15 K, 20000 kPa): 850.1 ± 1.1 kg/m3
mass density (333.15 K, 30000 kPa): 856.6 ± 1.1 kg/m3
mass density (333.15 K, 40000 kPa): 862.7 ± 1.1 kg/m3
mass density (333.15 K, 50000 kPa): 868.4 ± 1.1 kg/m3
mass density (333.15 K, 60000 kPa): 873.8 ± 1.1 kg/m3
mass density (333.15 K, 70000 kPa): 879 ± 1.1 kg/m3
mass density (333.15 K, 80000 kPa): 883.9 ± 1.1 kg/m3
speed of sound (343.15 K, 100 kPa): 1195.7 ± 5 m/s
mass density (343.15 K, 101.3 kPa): 827.9 ± 1 kg/m3
speed of sound (343.15 K, 10000 kPa): 1251.2 ± 5.2 m/s
mass density (343.15 K, 10000 kPa): 835.7 ± 1 kg/m3
speed of sound (343.15 K, 20000 kPa): 1302.9 ± 5.4 m/s
mass density (343.15 K, 20000 kPa): 843.1 ± 1.1 kg/m3
speed of sound (343.15 K, 30000 kPa): 1350.8 ± 5.6 m/s
mass density (343.15 K, 30000 kPa): 849.8 ± 1.1 kg/m3
speed of sound (343.15 K, 40000 kPa): 1396 ± 5.7 m/s
mass density (343.15 K, 40000 kPa): 856.2 ± 1.1 kg/m3
speed of sound (343.15 K, 50000 kPa): 1437.4 ± 5.9 m/s
mass density (343.15 K, 50000 kPa): 862.1 ± 1.1 kg/m3
speed of sound (343.15 K, 60000 kPa): 1477.5 ± 6.1 m/s
mass density (343.15 K, 60000 kPa): 867.7 ± 1.1 kg/m3
speed of sound (343.15 K, 70000 kPa): 1515 ± 6.2 m/s
mass density (343.15 K, 70000 kPa): 873 ± 1.1 kg/m3
speed of sound (343.15 K, 80000 kPa): 1550.8 ± 6.3 m/s
mass density (343.15 K, 80000 kPa): 878 ± 1.2 kg/m3
mass density (353.15 K, 101.3 kPa): 820.2 ± 1 kg/m3
mass density (353.15 K, 10000 kPa): 828.5 ± 1 kg/m3
mass density (353.15 K, 20000 kPa): 836.1 ± 1.1 kg/m3
mass density (353.15 K, 30000 kPa): 843.2 ± 1.1 kg/m3
mass density (353.15 K, 40000 kPa): 849.8 ± 1.1 kg/m3
mass density (353.15 K, 50000 kPa): 855.9 ± 1.1 kg/m3
mass density (353.15 K, 60000 kPa): 861.6 ± 1.1 kg/m3
mass density (353.15 K, 70000 kPa): 867.1 ± 1.1 kg/m3
mass density (353.15 K, 80000 kPa): 872.3 ± 1.2 kg/m3
speed of sound (363.15 K, 100 kPa): 1130.9 ± 4.7 m/s
mass density (363.15 K, 101.3 kPa): 812.6 ± 1 kg/m3
speed of sound (363.15 K, 10000 kPa): 1190.4 ± 4.9 m/s
mass density (363.15 K, 10000 kPa): 821.2 ± 1 kg/m3
speed of sound (363.15 K, 20000 kPa): 1245.2 ± 5.1 m/s
mass density (363.15 K, 20000 kPa): 829.2 ± 1.1 kg/m3
speed of sound (363.15 K, 30000 kPa): 1295.9 ± 5.3 m/s
mass density (363.15 K, 30000 kPa): 836.6 ± 1.1 kg/m3
speed of sound (363.15 K, 40000 kPa): 1342.5 ± 5.5 m/s
mass density (363.15 K, 40000 kPa): 843.4 ± 1.1 kg/m3
speed of sound (363.15 K, 50000 kPa): 1385.7 ± 5.7 m/s
mass density (363.15 K, 50000 kPa): 849.7 ± 1.1 kg/m3
speed of sound (363.15 K, 60000 kPa): 1426.7 ± 5.9 m/s
mass density (363.15 K, 60000 kPa): 855.6 ± 1.1 kg/m3
speed of sound (363.15 K, 70000 kPa): 1465.5 ± 6 m/s
mass density (363.15 K, 70000 kPa): 861.2 ± 1.2 kg/m3
speed of sound (363.15 K, 80000 kPa): 1502.6 ± 6.1 m/s
mass density (363.15 K, 80000 kPa): 866.6 ± 1.2 kg/m3
mass density (373.15 K, 101.3 kPa): 804.6 ± 1 kg/m3
mass density (373.15 K, 10000 kPa): 813.9 ± 1.1 kg/m3
mass density (373.15 K, 20000 kPa): 822.2 ± 1.1 kg/m3
mass density (373.15 K, 30000 kPa): 829.9 ± 1.1 kg/m3
mass density (373.15 K, 40000 kPa): 836.9 ± 1.1 kg/m3
mass density (373.15 K, 50000 kPa): 843.5 ± 1.1 kg/m3
mass density (373.15 K, 60000 kPa): 849.6 ± 1.1 kg/m3
mass density (373.15 K, 70000 kPa): 855.3 ± 1.2 kg/m3
mass density (373.15 K, 80000 kPa): 860.8 ± 1.2 kg/m3
speed of sound (383.15 K, 100 kPa): 1066.7 ± 4.5 m/s
mass density (383.15 K, 101.3 kPa): 796.4 ± 1 kg/m3
speed of sound (383.15 K, 10000 kPa): 1131.3 ± 4.7 m/s
mass density (383.15 K, 10000 kPa): 806.3 ± 1.1 kg/m3
speed of sound (383.15 K, 20000 kPa): 1189.6 ± 4.9 m/s
mass density (383.15 K, 20000 kPa): 815.1 ± 1.1 kg/m3
speed of sound (383.15 K, 30000 kPa): 1242.9 ± 5.1 m/s
mass density (383.15 K, 30000 kPa): 823 ± 1.1 kg/m3
speed of sound (383.15 K, 40000 kPa): 1291.7 ± 5.3 m/s
mass density (383.15 K, 40000 kPa): 830.3 ± 1.1 kg/m3
speed of sound (383.15 K, 50000 kPa): 1338 ± 5.5 m/s
mass density (383.15 K, 50000 kPa): 837.1 ± 1.1 kg/m3
speed of sound (383.15 K, 60000 kPa): 1380.3 ± 5.7 m/s
mass density (383.15 K, 60000 kPa): 843.4 ± 1.1 kg/m3
speed of sound (383.15 K, 70000 kPa): 1420.4 ± 5.8 m/s
mass density (383.15 K, 70000 kPa): 849.3 ± 1.2 kg/m3
speed of sound (383.15 K, 80000 kPa): 1457.6 ± 6 m/s
mass density (383.15 K, 80000 kPa): 854.9 ± 1.2 kg/m3
speed of sound (393.15 K, 100 kPa): 1036.2 ± 4.3 m/s
mass density (393.15 K, 101.3 kPa): 788.5 ± 1 kg/m3
speed of sound (393.15 K, 10000 kPa): 1103.6 ± 4.6 m/s
mass density (393.15 K, 10000 kPa): 798.6 ± 1.1 kg/m3
speed of sound (393.15 K, 20000 kPa): 1163.5 ± 4.8 m/s
mass density (393.15 K, 20000 kPa): 807.7 ± 1.1 kg/m3
speed of sound (393.15 K, 30000 kPa): 1217.8 ± 5 m/s
mass density (393.15 K, 30000 kPa): 815.9 ± 1.1 kg/m3
speed of sound (393.15 K, 40000 kPa): 1267.7 ± 5.2 m/s
mass density (393.15 K, 40000 kPa): 823.5 ± 1.1 kg/m3
speed of sound (393.15 K, 50000 kPa): 1314.4 ± 5.4 m/s
mass density (393.15 K, 50000 kPa): 830.5 ± 1.1 kg/m3
speed of sound (393.15 K, 60000 kPa): 1357.8 ± 5.6 m/s
mass density (393.15 K, 60000 kPa): 837 ± 1.2 kg/m3
speed of sound (393.15 K, 70000 kPa): 1397.8 ± 5.7 m/s
mass density (393.15 K, 70000 kPa): 843.1 ± 1.2 kg/m3
speed of sound (393.15 K, 80000 kPa): 1436.8 ± 5.9 m/s
mass density (393.15 K, 80000 kPa): 848.8 ± 1.2 kg/m3
